According to patent publication US5494917A, “Cognition enhancing quinuclidine compound” (Kanegafuchi Kagaku Kogyo Kabushiki Kaisha, priority 1993, dated 1996):

How the values were obtained:
[1] = test system: experimental amnesia in rat induced by lesioning basal forebrain (BF); test: Anti-amnesic effect: step-through passive avoidance, amnesia induced by BF lesion (ibotenic acid); type: in vivo, Wistar male rat; details: for minimal effective dose: Rattus norvegicus, oral, BF lesion amnesia, read-out: most potent minimal effective dose; for Latency: retention after 24 hours, max 300 s
Method: (§1) As experimental animals, Wistar male rats and ddY male mice were used for the experiments after they were housed for a week under every 12 hours'dark-light cycle at room temperature of 24° to 26° C.
The effect on experimental amnesia in rat induced by lesioning basal forebrain (BF) was evaluated.
The experiment was carried out using an experimental apparatus of step-through type passive avoidance task for rat (made by Ohara-ika-sangyoK.K. ) comprising two compartments of dark and light. That is, the dark compartment (height: 200 cm, width: 150 cm, length: 200 cm) was a black plastic box and was floored with stainless grids for giving an electrical shock so that an electricity might be turned on a determined time after interception of a photobeam placed in the dark compartment. The light compartment made of transparent plastic (height: 200 cm, width: 250 cm, length: 200 cm) was provided adjacent to the dark compartment and was lightened from a location spaced 25 cm above by a 60 W electric lamp. Between the two compartments, there was provided an entrance with a guillotine door which could be opened and closed, and when the guillotine door was opened, a rat could freely move from one compartment to another.
Amnesia was induced by BF lesion. Among presently known methods for inducing amnesia, this method is considered to provide an animal model having the most similar pathology to Alzheimer's disease. The BF lesion was carried out by fixing an animal to a stereotaxic apparatus under nembutal anesthesia, inserting a stainless pipe into the BF area according to the brain map of Koenig, and injecting ibotenic acid bilaterally from the stainless pipe. In the sham-operation group, although craniotomy was carried out, ibotenic acid was not injected and therefore BF was not lesioned. The animals were used for experiments after recovery period of about 4 weeks.
Anti-amnesic effect was evaluated according to the following procedure.
A Wistar male rat (9 week-old) previously conditioned in the dark-light box was put in the light compartment and the guillotine door was opened. When the rat moved into the dark compartment, 150 V electrical shock was given for 3 seconds from the floor grid (aquisition trial). After 24 hours, retention trial was carried out in the same manner as in the aquisition trial, and latency, a period until the animal put in the light compartment entered the dark compartment, was measured maximally 300 seconds.
Every test compound was suspended in a distilled water containing 2.5% of gum arabic and 0.2% of Tween 80. […] The doses were 0.01 to 10 mg/kg.

M1 receptor = molecular target: T1, M1 receptor (Rattus norvegicus, UniProt P08482); test: M1 receptor binding ((3H)pirenzepine, cerebral cortex); design: species or system Wistar male rat; details: for nH (pseudo Hill coefficient) / IC50 / Ki: (3H)pirenzepine, rat cerebral cortex; for IC50: 25° C., 60 minutes, pH 7.4; for Ki: calculated from IC50; for M1 receptor binding ability / selectivity (in words): M1 vs M2; for M1 receptor binding ability compared with muscarinic agonists (in words): vs AF102B and McN-A-343
T1 construct: from tissue; host or cells: Wistar male rat cerebral cortex, washed homogenate
T1 sequence (P08482 1-460): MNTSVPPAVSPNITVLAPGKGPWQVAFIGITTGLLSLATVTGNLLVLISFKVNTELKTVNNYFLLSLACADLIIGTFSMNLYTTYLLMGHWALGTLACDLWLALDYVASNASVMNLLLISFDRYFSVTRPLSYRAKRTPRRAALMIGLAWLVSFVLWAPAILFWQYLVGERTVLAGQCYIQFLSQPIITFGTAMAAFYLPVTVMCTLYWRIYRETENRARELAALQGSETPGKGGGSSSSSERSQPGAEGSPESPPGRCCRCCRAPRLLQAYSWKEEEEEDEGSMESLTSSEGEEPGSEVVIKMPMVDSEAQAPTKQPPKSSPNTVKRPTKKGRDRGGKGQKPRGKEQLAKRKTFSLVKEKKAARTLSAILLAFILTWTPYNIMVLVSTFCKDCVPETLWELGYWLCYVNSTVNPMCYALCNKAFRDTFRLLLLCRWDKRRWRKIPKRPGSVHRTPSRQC
Method: The binding ability of the test compounds to M1 receptor was determined according to a modification of the method of Watson et al. (Life Sci., 32, 3001 (1983)). Concretely, 100 volume (W/V) of 10 mM Na--K phosphate buffer (pH 7.4) was added to a cerebral cortex of a Wistar male rat, and after the homogenization with polytron, the homogenate was centrifuged and washed twice. To 1 ml of the test liquid which was prepared by re-suspending the resulting precipitate, were added 20 μl of (^3 H)pirenzepine, M1 receptor specific antagonist, and 20 μl of a test medicinal compound. After the incubation at 25° C. for 60 minutes, the mixture was filtrated and washed with a glass filter, and an amount of (^3 H)pirenzepine bound to the receptor was counted by means of a liquid scintillation counter.
(§2) Ki is an affinity of a medicinal compound for a receptor, which is calculated from the following formula: [formula]
(§3) In addition, nH is pseudo Hill coefficient which represents the number of a binding part of a receptor. When the values of IC50 and Ki are smaller, a binding ability of a medicinal compound to a receptor is stronger.

M2 receptor = molecular target: T2, M2 receptor (Rattus norvegicus, UniProt P10980); test: M2 receptor binding ((3H)N-methyl scopolamine, heart)
T2 construct: from tissue; host or cells: rat heart, 40,000 g membrane fraction
T2 sequence (P10980 1-466): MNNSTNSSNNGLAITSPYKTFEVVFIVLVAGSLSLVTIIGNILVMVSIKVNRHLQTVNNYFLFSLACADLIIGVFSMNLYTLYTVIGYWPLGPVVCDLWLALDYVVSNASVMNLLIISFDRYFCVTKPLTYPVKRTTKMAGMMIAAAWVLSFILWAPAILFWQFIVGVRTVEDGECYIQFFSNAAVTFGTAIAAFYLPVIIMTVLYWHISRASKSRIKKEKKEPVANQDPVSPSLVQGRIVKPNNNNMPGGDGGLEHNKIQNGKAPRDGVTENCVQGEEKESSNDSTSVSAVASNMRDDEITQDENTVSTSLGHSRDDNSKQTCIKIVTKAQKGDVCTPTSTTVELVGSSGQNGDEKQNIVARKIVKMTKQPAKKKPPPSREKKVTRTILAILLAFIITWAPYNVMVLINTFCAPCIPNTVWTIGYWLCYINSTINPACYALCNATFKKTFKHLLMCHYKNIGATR
Method: The binding ability to M2 receptor was determined according to a modification of the method of Buckley et al. (Mol. Pharmacol., 35, 469 (1989)). Concretely, 10 volume (W/V) of 50 mM Tris-HCl buffer (pH 7.4) was added to rat's heart, and after the homogenization with polytron, the homogenate was centrifuged and washed twice at 500 g for 10 minutes. The resulting supernatant was centrifuged four times at 40,000 g for 20 minutes. To 450 μl of the test liquid which was prepared by re-suspending the resulting precipitate, were added 200 μl of (^3 H)N-methyl scopolamine, a muscarinic specific antagonist, and 100 μl of a test medicinal compound. After the incubation at 22° C. for 90 minutes, the amount of (^3 H)N-methyl scopolamine found was determined.
as §2, §3

[2] = Acute toxicity test, oral; type: in vivo, ddY male mice; details: mouse, in vivo; oral, 2 weeks observation; estimated
Method: as §1
(§4) With respect to Compounds 1a and 1b shown in Table 1 as test compounds, the acute toxicity was examined using ddY mice according to the following method.
(§5) In each group, six male ddY mice weighing 27 to 30 g were employed. Compounds 1a and 1b suspended in an aqueous solution of 0.5% sodium carboxymethylcellulose were orally administered in a dose of 0.1 ml/10 g body weight. […] The LD50 (mg/kg) values were estimated from the ratio of the number of dead mice to the number of mice used.

ddY mice = test: Acute toxicity test, oral; type: in vivo, ddY male mice; details: 100 mg/kg oral, 2 weeks observation, 0.5% sodium carboxymethylcellulose
Method: as §1, §4, §5

[3] = (3H)N-methyl scopolamine, rat heart, 22° C., 90 minutes, pH 7.4
[4] = 0.1 mg/kg p.o., 1 hour before aquisition trial
[5] = 1.0 mg/kg p.o., 1 hour before aquisition trial

Row | Structure (SMILES) | minimal effective dose [1] [mg/kg] | nH (pseudo Hill coefficient) (M1 receptor) | IC50 (M1 receptor) [nM] | Ki (M1 receptor) [nM] | IC50 (M2 receptor; [3]) [nM] | Latency [1, 4] [s] | Latency [1, 5] [s] | M1 receptor binding ability / selectivity (in words) (M1 receptor) | M1 receptor binding ability compared with muscarinic agonists (in words) (M1 receptor) | LD50 at 336 h [2] [mg/kg] | dead mice (ddY mice) | Latency ([1]; 0.01 mg/kg p.o., 1 hour before aquisition trial) [s] | Latency ([1]; 10 mg/kg p.o., 1 hour before aquisition trial) [s] | nH (pseudo Hill coefficient) (M2 receptor; (3H)N-methyl scopolamine, rat heart) | Ki (M2 receptor; (3H)N-methyl scopolamine, rat heart, calculated from IC50) [nM] | IC50 (M2 receptor; M2 receptor binding) [nM] | M2 receptor binding ability weaker than M1 receptor binding ability (M2 receptor; M2 vs M1) | Latency ([1]; 1.0 mg/kg p.o., 30 minutes before aquisition trial) [s] | Latency ([1]; 5.0 mg/kg p.o., 30 minutes before aquisition trial) [s]
1 | CC1OC2(CS1)CN1CCC2CC1 (stereo not drawn) [AF102B, cis-2-methylspiro(1,3-oxathiolane-5,3') quinuclidine, reference compound] | 1 | 0.8 ± 0.01 | 729 ± 116 | 509 ± 80 | > 10000 | – | – | – | – | – | – | – | – | – | – | – | – | – | –
2 | C(=C1/CN2CCC1CC2)/c1cccc(Oc2ccccc2)c1 [Compound 1a] | 1 | 0.9 ± 0.06 | 221 ± 32 | 152 ± 22 | > 10000 | 38 | 156 | strong and specific M1 receptor binding ability | stronger binding ability to M1 than muscarinic agonists, AF102B (in course of clinical testing) and McN-A-343 | ≥ 100 | no dead mice | – | – | – | – | – | – | – | –
3 | C(=C1\CN2CCC1CC2)/c1cccc(Oc2ccccc2)c1 [Compound 1b] | 0.1 | 0.8 ± 0.07 | 23 ± 3 | 16 ± 2 | 4400 ± 100 | 182 | 139 | strong and specific M1 receptor binding ability | stronger binding ability to M1 than muscarinic agonists, AF102B (in course of clinical testing) and McN-A-343 | ≥ 100 | no dead mice | 76 | 99 | 1.0 ± 0.02 | 1700 ± 40 | ≤ 10000 | about 190 times | – | –
4 | C[N+](C)(C)CC#CCOC(=O)Nc1cccc(Cl)c1 [McN-A-343, 4[[[3-chlorophenyl)amino]carbonyl]oxy]-N, N, N-trimethyl-2-butyn-1-aminium chloride, reference compound] | – | 0.9 ± 0.05 | 842 ± 88 | 581 ± 61 | > 10000 | – | – | – | – | – | – | – | – | – | – | – | – | – | –
5 | Nc1c2c(nc3ccccc13)CCCC2 [Tacrine, tetrahydroaminoacridine, reference compound] | – | – | – | – | – | – | – | – | – | – | – | – | – | – | – | – | – | 79 | 188
